Experimental data as given in patent publication US10508147B2, “Anti-nodal antibodies and methods of using same” (ANN AND ROBERT H. LURIE CHILDREN'S HOSPITAL OF CHICAGO, priority 2014, dated 2019).
Entries after “also recorded” stand apart in the source; their conditions may differ.

What was measured:
[1] = test system: A375SM human metastatic melanoma cells; assay: A375SM orthotopic xenograft in Nude mice; type: in vivo
Protocol: Experiments were carried out to determine the in vivo effects of 3D1 mAb on primary melanoma. To this end, 500,000 C8161 cells were injected subcutaneously in Nude mice. Palpable tumors were then injected directly with either 700 μg of total 3D1 mAb or IgG control antibody (alternate day intratumoral injection of 100 μg over 14 days). Mice were then sacrificed and subcutaneous tumors harvested and processed as previously described. To evaluate the effect of 3D1 mAb in the presence of the BRAF(V600E) mutation, a third orthotopic xenograft model was established in Nude mice via subcutaneous injection of approximately 150,000 A375SM human metastatic melanoma cells. Mice were treated IP with 3D1 mAb or IgG control, as described above, or 3 mg/kg of dabrafenib.
Four micron thick, formalin fixed, paraffin embedded tissue sections were prepared and immunohistochemistry was carried out on a Dako Plus autostainer (DAKO, Inc, Carpenteria, Calif.). Following antigen retrieval and blocking steps, sections were incubated in primary antibody for 60 mins, followed by appropriate biotinylated secondary antibody (Biocare Medical, Conrad, Calif.), and then streptavidin-horseradish peroxidase (Thermo Scientific Lab Vision). Color was developed with 3,3′-diaminobenzidine substrate (Thermo Scientific Lab Vision) and sections were counterstained with hematoxylin (Biocare Medical, LLC). As a negative control, adjacent serial sections were incubated with species appropriate irrelevant IgG (Jackson ImmunoResearch Labs) at the same concentration as primary antibodies. Similar to the lung tumor burden evaluation described above, mean percentage of positive staining±SEM was determined by 2 different observers, each calculating the ratio of positive cells/total number of cells×100 for 4 separate high power fields (63× objective) from at least 2 different mice per group.

[2] = test system: A375SM human melanoma cell line; assay: Western blot of A375SM cells treated with BRAFi (dabrafenib) or 3D1; type: cell-based; settings: 72 hr
Protocol: To determine the level of Nodal expression in brain, kidney, liver, pancreas, heart and skeletal muscle ready to use adult tissue extracts for Western blotting (WB) were purchased from Santa Cruz Biotechnology. For WB experiments of cell lines, whole cell lysates were prepared and quantified. SDS-PAGE gel electrophoresis and WB were performed using standard techniques. PVDF membranes were blocked in 5% non-fat milk or 5% BSA and antibodies diluted in either 5% non-fat milk or 5% bovine serum albumin overnight at 4° C., depending on the manufacturer's recommendations. Signal was detected using West Pico chemiluminescence reagent (Thermo Fisher) and exposure to x-ray film.

3D1 mAb = assay: ELISA epitope mapping and specificity assay of coated peptides probed with 3D1; type: binding, mouse; settings: peptides coated at 1.0 μg/mL; 3D1 mAb 1.0 μg/mL
Protocol: Residues underlying the binding between 3D1 and Nodal were investigated by epitope mapping using a set of Nodal synthetic peptides (See FIG. 9). […] Peptides were immobilized at 1 μg/mL and probed with 3D1 at […]. Data were normalized to the binding of the peptide hNODAL (44-69) wild-type (WT). […] Most interactions were established with C43, P46, V47, E49, E50. The effect of Y58 can be on the conformation of the peptide.
Peptides used for the epitope mapping and for the specificity assay of the 3D1 mAb were coated at 1.0 μg/mL diluted in PBS; 3D1 mAb, dissolved in PBS, was used as primary antibody at 1.0 μg/mL.

endogenous Nodal = assay: Western blot competition between 3D1 antigen peptide and endogenous Nodal in human embryonic stem cell lysates; type: binding; settings: 3D1 4 μg/mL, hNodal(44-56) 10 μg/mL; H9 and H14 hESC lysates
Protocol: Thirty micrograms of H9 and H14 human embryonic stem cell total protein lysates, obtained as previously described, were separated on a 15% SDS-PAGE gel under reducing conditions and the resolved proteins were transferred onto a PVDF membrane. 50 ng of rhNodal protein were used as positive control. A Western blotting procedure was conducted: membranes were blocked, then probed with the 3D1 alone at 4.0 μg/mL in 2.5% NFDM in TBS-T and with the 3D1 mAb at 4.0 μg/mL pre-incubated with its antigen, the hNodal(44-56) peptide at 10 μg/mL. […] Blots were developed with Enhanced Chemiluminescence Western Blot Substrate (Pierce, Rockford, Ill., USA) following the manufacturer's instructions and were acquired by using a Chemidoc XRS video densitometer (Bio-Rad, Hercules, Calif., USA).

Row | Compound | mean percentage (±SEM) of nuclear P-Smad2 ([1]; IHC, N=4) | tumor volumes ([1]; after 8 days, vs IgG control) | Nodal expression [2] | ERK1/2 activity (P-ERK1/2) ([2]; dabrafenib 10 nM) | ELISA signal for binding to 3D1 (3D1 mAb) | staining of endogenous Nodal by 3D1 after pre-incubation with the peptide (endogenous Nodal)
1 | CC(C)(C)c1nc(-c2cccc(NS(=O)(=O)c3c(F)cccc3F)c2F)c(-c2ccnc(N)n2)s1 [dabrafenib] | 68.7%±6.3% | trend towards reduced tumor volumes | relatively unaffected; also recorded: only minimally affected | significantly reduced |  | 
2 | CEGECPNPVGEEFHPTNHAYIQSLLKRYQPHRVPSTC [hNodal(39-75)] |  |  |  |  | bound with similar efficiency | 
3 | PNPVGEEFHPTNH [hNodal(44-56)] |  |  |  |  | strongest signal | no longer detectable
